Structures can show the parent of a compound that is named as a salt.
Target: T1, hα7-wt nAChR stably expressed in the GH4C1 cell line (Homo sapiens, UniProt P36544)
T1 construct: expressed in transfected cells
Test: Ca2+ flux imaging (FLIPR) of PAM activity with choline as agonist
Assay type: cell-based
Conditions: efficacy relative to 100 μM choline alone (defined as 1); peak fluorescence, fluo-4AM; compounds tested 0.1 μM to 30 μM, efficacy criterion at 10 μM
Excerpt: Stable expression in mammalian cells in general and rat GH4C1 cells in particular, of cDNA clones encoding the human α7 wild-type sequence (hα7-wt nAChR) and in which the coding region is placed downstream of a promoter results in the appearance of functional α7 nAChRs on the surface of the mammalian cells. This technique has provided a powerful means of assessing the function of α7 wild-type protein. Given the fact that the cation permeability of the α7 nicotinic receptor preferentially favours calcium, fluorescent imaging of Ca^2+ flux through the hα7-wt nAChR stably expressed in the GH4C1 cell line was used as a first means of assaying modulator activity of the compounds of the present invention.
a) Assay Buffer • Hanks buffered saline solution (HBSS, Invitrogen, Belgium), supplemented with 10 mM HEPES (Invitrogen, Belgium), CaCl2 to a final concentration of 5 mM, 0.1% Bovine serum albumin (Sigma-Aldrich NV, Belgium), 2.5 mM probenecid (Sigma-Aldrich NV, Belgium).
b) Calcium-Sensitive Dye—Fluo-4AM • Fluo-4AM (Molecular Probes, USA) was dissolved in DMSO containing 10% Pluronic acid (Molecular Probes, USA) to give a stock solution which was aliquoted and could be stored at −20° C. until later use. On the day of the experiment Fluo-4AM stock was defrosted and diluted in DMEM/F12 (Invitrogen, Belgium) containing 2.5 mM probenicid and 0.1% BSA to give a final concentration of 2 μM.
c) 96-well Plates • BD Biocoat poly-D-lysine 96-well black/clear bottom plates (BD Biosciences, Belgium)
d) Calcium Flux Measurement • A Fluorimetric Imaging Plate Reader (FLIPR, Molecular Devices Corporation, Sunnyvale, USA) was used to measure intracellular free-calcium flux signals
Monolayers of hα7-wt nAChR-expressing cells were grown in multi-well plates, in particular black-sided, transparent bottomed 96 well plates coated with poly-D-lysine for 24 hours prior to loading with a fluorescent calcium indicator, in a particular embodiment loading with fluo-3 or fluo-4AM for up to 90 minutes, in an even more particular embodiment loading with fluo-4AM for up to 90 minutes, and in a preferred embodiment loading with fluo-4AM for 60 minutes.
In a particular embodiment, the α7 nicotinic receptor agonist was choline, a more particular embodiment choline applied at a sub-maximal concentration of 100 μM.
A control response to choline was calculated on each plate from the difference in peak fluorescence in wells receiving either choline or assay buffer alone. Compounds of the present invention were tested at a concentration range from 0.1 μM to 30 μM.
The activity ranges are defined as follows; A denotes an activity range from 1.1 till 1.5, B denotes an activity range from 1.5 till 2.0, C denotes an activity range from 2.0 till 3.0, D denotes an activity range from 3.0 till 4.5 and E denotes an efficacy from at least 4.5.

T1 sequence (P36544 23-502): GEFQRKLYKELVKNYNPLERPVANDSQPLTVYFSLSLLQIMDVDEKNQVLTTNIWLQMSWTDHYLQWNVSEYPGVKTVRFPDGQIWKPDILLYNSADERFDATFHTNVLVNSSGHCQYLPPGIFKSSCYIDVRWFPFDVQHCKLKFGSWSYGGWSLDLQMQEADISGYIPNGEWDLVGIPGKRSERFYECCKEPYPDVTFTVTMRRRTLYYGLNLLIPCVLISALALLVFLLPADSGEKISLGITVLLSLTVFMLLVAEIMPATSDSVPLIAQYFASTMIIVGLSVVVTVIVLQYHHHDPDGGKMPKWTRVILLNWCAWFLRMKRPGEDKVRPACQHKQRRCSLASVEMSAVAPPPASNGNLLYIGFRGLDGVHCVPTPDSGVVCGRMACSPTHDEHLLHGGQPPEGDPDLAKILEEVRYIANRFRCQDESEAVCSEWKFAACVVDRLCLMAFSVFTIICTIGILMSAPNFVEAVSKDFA

SMILES	Activity Range
CNC(=O)Cc1sc(Nc2cc(Cl)ccc2Cl)nc1-c1ccncc1 [Compound 163]	E (E denotes an efficacy from at least 4.5)
CCOC(=O)Cc1sc(Nc2cc(Cl)ccc2Cl)nc1-c1ccncc1 [int. 30]	E (E denotes an efficacy from at least 4.5)
O=C(NCc1sc(Nc2cccc(C(F)(F)F)c2)nc1-c1cccnc1)c1ccccc1 [Compound 164]	E (E denotes an efficacy from at least 4.5)
NC(=O)Cc1sc(Nc2cc(Cl)ccc2Cl)nc1-c1ccncc1 [Compound 113, 2-[(2,5-dichlorophenyl)amino]-4-(4-pyridinyl)-5-thiazoleacetamide]	E (E denotes an efficacy from at least 4.5)
O=C(Nc1cccnc1)c1sc(Nc2ccc(F)cc2)nc1-c1ccccc1 [Compound 169, 5-Thiazolecarboxamide, 2-[(4-fluorophenyl)amino]-4-phenyl-N-3-pyridinyl-]	D (D denotes an activity range from 3.0 till 4.5)
COCc1sc(Nc2cc(Cl)ccc2Cl)nc1-c1ccccc1 [Compound 98]	E (E denotes an efficacy from at least 4.5)
COc1ccc(OC)c(-c2csc(Nc3ccccc3Cl)n2)c1 [Compound 43]	B (B denotes an activity range from 1.5 till 2.0)
Fc1cccc(-c2csc(Nc3cccc(C(F)(F)F)c3)n2)c1 [int. 12]	C (C denotes an activity range from 2.0 till 3.0)
COc1ccc(-c2csc(Nc3cccc(Cl)c3Cl)n2)c(OC)c1 [Compound 8]	C (C denotes an activity range from 2.0 till 3.0)
CCCc1nc(Nc2cccc(C(F)(F)F)c2)sc1C(=O)OCC [Compound 155]	E (E denotes an efficacy from at least 4.5)
CNC(=O)CCc1sc(Nc2ccc(OC)cc2)nc1-c1ccnc(Cl)c1 [Compound 111]	E (E denotes an efficacy from at least 4.5)
COc1cc(OC)c(Nc2nc(-c3ccc4c(c3)OCCO4)c(CO)s2)cc1Cl [int. 19, 2-[(5-chloro-2,4-dimethoxyphenyl)amino]-4-(2,3-dihydro-1,4-benzodioxin-6-yl)-5-thiazolemethanol]	E (E denotes an efficacy from at least 4.5)
OCc1sc(Nc2cccc(C(F)(F)F)c2)nc1C(F)(F)F [Compound 119]	E (E denotes an efficacy from at least 4.5)
FC(F)(F)c1cccc(Nc2nc(-c3ccoc3)cs2)c1 [Compound 74]	B (B denotes an activity range from 1.5 till 2.0)
Cc1sc(Nc2ccc(Br)cc2)nc1-c1cccnc1 [Compound 137]	D (D denotes an activity range from 3.0 till 4.5)
CC(=O)NCc1sc(Nc2ccc(F)c(C(F)(F)F)c2)nc1-c1cccnc1 [Compound 32]	C (C denotes an activity range from 2.0 till 3.0)
COc1ccc(Nc2nc(-c3ccc4c(c3)OCCO4)c(CO)s2)c(OC)c1 [Compound 95, 4-(2,3-dihydro-1,4-benzodioxin-6-yl)-2-[(2,4-dimethoxyphenyl)amino]-5-thiazolemethanol]	E (E denotes an efficacy from at least 4.5)
Cc1ccc(Nc2nc(-c3cccnc3)cs2)cn1 [Compound 66]	D (D denotes an activity range from 3.0 till 4.5)
Fc1cncc(-c2csc(Nc3ccc(F)c(C(F)(F)F)c3)n2)c1 [Compound 5]	D (D denotes an activity range from 3.0 till 4.5)
CSc1cccc(Nc2nc(-c3cccnc3)c(C)s2)c1 [Compound 141]	C (C denotes an activity range from 2.0 till 3.0)
CCOC(=O)c1sc(Nc2cccc(C(F)(F)F)c2)nc1C(F)(F)F [Compound 147]	E (E denotes an efficacy from at least 4.5)
CCCc1nc(Nc2cc(Cl)ccc2Cl)sc1C(=O)OCC [Compound 156]	E (E denotes an efficacy from at least 4.5)
COc1cc(OC)c(Nc2nc(-c3ccc(F)c(F)c3)c(CC(=O)N3CCCC3)s2)cc1Cl [Compound 132]	E (E denotes an efficacy from at least 4.5)

SMILES	Activity Range
Cc1cc(Nc2nc(-c3cccnc3)c(F)s2)ccc1F [Compound 83]	C (C denotes an activity range from 2.0 till 3.0)
Cc1cc(Nc2nc(-c3cccnc3)cs2)ccc1F [Compound 78]	B (B denotes an activity range from 1.5 till 2.0)
Cc1cc(C(=O)NCc2sc(Nc3cccc(C(F)(F)F)c3)nc2-c2cccnc2)no1 [Compound 108, 5-methyl-N-[[4-(3-pyridinyl)-2-[[3-(trifluoromethyl)phenyl]amino]-5-thiazolyl]methyl]-3-isoxazolecarboxamide]	E (E denotes an efficacy from at least 4.5)
Cc1ccc(Nc2nc(-c3cncc(Br)c3)c(CO)s2)cn1 [Compound 125]	E (E denotes an efficacy from at least 4.5)
FC(F)(F)c1cc(Nc2nc(-c3cnc4ccccn34)cs2)ccc1Cl [Compound 54]	A (A denotes an activity range from 1.1 till 1.5)
COC(=O)CCc1sc(Nc2ccc(OC)cc2)nc1-c1ccc(OC)cc1 [Compound 173, 5-Thiazolepropanoic acid, 4-(4-methoxyphenyl)-2-[(4-methoxyphenyl)amino]-, methyl ester]	D (D denotes an activity range from 3.0 till 4.5)
OCc1sc(Nc2cccc(C(F)(F)F)c2)nc1-c1ccc(Cl)cc1Cl [Compound 31, [4-(2,4-Dichloro-phenyl)-2-(3-trifluoromethyl-phenylamino)-thiazol-5-yl]-methanol]	B (B denotes an activity range from 1.5 till 2.0)
COC(=O)c1sc(Nc2ccc(OC)cc2)nc1C(C)C [Compound 151]	E (E denotes an efficacy from at least 4.5)
Cc1sc(Nc2ccc(C(F)(F)F)cc2)nc1-c1cnc2ccccn12 [Compound 85]	C (C denotes an activity range from 2.0 till 3.0)
CCCc1nc(Nc2ccc(OC)cc2)sc1C(=O)OCC [Compound 102]	E (E denotes an efficacy from at least 4.5)
CCOC(=O)c1ccc(Nc2nc(-c3cccnc3)c(C)s2)cc1 [Compound 142]	E (E denotes an efficacy from at least 4.5)
CC(=O)NCc1sc(Nc2cccc(C(F)(F)F)c2)nc1-c1cccnc1 [Compound 4, N-[4-Pyridin-3-yl-2-(3-trifluoromethyl-phenylamino)-thiazol-5-ylmethyl]-acetamide]	D (D denotes an activity range from 3.0 till 4.5)
Cc1cccc(Nc2nc(-c3cnc4ccccn34)c(F)s2)c1 [Compound 82]	B (B denotes an activity range from 1.5 till 2.0)
COCc1nc(Nc2cccc(C(F)(F)F)c2)sc1C(=O)OC [Compound 103]	E (E denotes an efficacy from at least 4.5)
COc1ccc(Nc2nc(-c3ccncc3)c(CO)s2)c(OC)c1 [Compound 123]	D (D denotes an activity range from 3.0 till 4.5)
Brc1ccc(Nc2nc(-c3cnc4ccccn34)cs2)cn1 [Compound 45]	D (D denotes an activity range from 3.0 till 4.5)
c1cn2c(-c3csc(Nc4ccc5c(c4)CCO5)n3)cnc2s1 [Compound 60]	B (B denotes an activity range from 1.5 till 2.0)
COc1ccc(OC)c(-c2csc(Nc3cccc(Cl)c3Cl)n2)c1 [Compound 39]	C (C denotes an activity range from 2.0 till 3.0)
COc1ccc(-c2csc(Nc3cc(F)ccc3C)n2)c(OC)c1 [Compound 40]	C (C denotes an activity range from 2.0 till 3.0)
COc1ccc(Nc2nc(-c3cnc4ccccn34)cs2)cc1 [Compound 70]	D (D denotes an activity range from 3.0 till 4.5)
Fc1cccc(-c2csc(Nc3ccc(F)c(C(F)(F)F)c3)n2)c1 [Compound 79]	B (B denotes an activity range from 1.5 till 2.0)
COc1cc(OC)c(Nc2nc(-c3ccc4c(c3)OCCO4)c(CC(=O)N3CCCC3)s2)cc1Cl [Compound 133]	E (E denotes an efficacy from at least 4.5)
Brc1ccc(Nc2nc(-c3cccnc3)cs2)cn1 [Compound 64]	D (D denotes an activity range from 3.0 till 4.5)

Test system: not given
Test: not given
Conditions: not given

melting point	SMILES
237.2 to 244 °C	CNC(=O)Cc1sc(Nc2cc(Cl)ccc2Cl)nc1-c1ccncc1 [Compound 163]
248 °C	Fc1ccc(Nc2nc(-c3cnc4ccccn34)cs2)cc1C(F)(F)F (as salt: HCl) [Compound 9]
156.8 to 163.5 °C	CCOC(=O)Cc1sc(Nc2cc(Cl)ccc2Cl)nc1-c1ccncc1 [int. 30]
215.5 to 218.9 °C	O=C(NCc1sc(Nc2cccc(C(F)(F)F)c2)nc1-c1cccnc1)c1ccccc1 [Compound 164]
249.6 to 257.1 °C	NC(=O)Cc1sc(Nc2cc(Cl)ccc2Cl)nc1-c1ccncc1 [Compound 113, 2-[(2,5-dichlorophenyl)amino]-4-(4-pyridinyl)-5-thiazoleacetamide]

— patent US9388175B2, “2-aniline-4-aryl substituted thiazole derivatives” (Janssen Pharmaceutica N.V., priority 2005, dated 2016)
